“And” between values parts separate entries of the source, which are not always exact repeats. Identical values can stand only once. Like-named read-outs stand apart in the source and are kept apart here.
Tests used:
[1] = biological target: T1, TRIM24 (Homo sapiens, UniProt O15164); test: Liability panel screening by DSF: TRIM24; assay type: binding; settings: read-out: Mean ΔTM TRIM24
T1 construct: This panel comprised ten highly ligandable kinases and bromodomains; made in house
T1 sequence (O15164 899-1004 limits assumed): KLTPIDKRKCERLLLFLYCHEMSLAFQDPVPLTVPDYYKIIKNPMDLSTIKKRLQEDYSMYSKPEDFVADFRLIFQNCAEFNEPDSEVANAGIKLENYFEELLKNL
Method in brief: (§1)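 ∆Tm in K was taken from Boltzmann-fitted unfolding inflection points, run in duplicate with a temperature ramp of 3 °C per minute up to 85 °C. Each recombinant protein (2 µM) was in HEPES 10 mM pH 7.5 and NaCl 500 mM, with SYPRO Orange dye at 1:1000.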

[2] = biological target: T2, CDK2 (Homo sapiens, UniProt P24941); test: Liability panel screening by DSF: CDK2; assay type: binding; settings: read-out: Mean ΔTM CDK2
T2 construct: made in house
Method in brief: as §1

[3] = system: HEK293T cells; test: Cytotoxicity: metabolic activity (WST-8 / CCK-8 assay); settings: 1 µM; HEK293T, 24 h; WST-8; normalized to 0.1% DMSO; single replicates
[4] = system: NR3C4 (AR); settings: cited from earlier work
[5] = biological target: T3, MAPK1 (Homo sapiens, UniProt P28482); test: Liability panel screening by DSF: MAPK1; assay type: binding; settings: read-out: Mean ΔTM MAPK1
T3 construct: made in house
T3 sequence (P28482 whole entry, species assumed): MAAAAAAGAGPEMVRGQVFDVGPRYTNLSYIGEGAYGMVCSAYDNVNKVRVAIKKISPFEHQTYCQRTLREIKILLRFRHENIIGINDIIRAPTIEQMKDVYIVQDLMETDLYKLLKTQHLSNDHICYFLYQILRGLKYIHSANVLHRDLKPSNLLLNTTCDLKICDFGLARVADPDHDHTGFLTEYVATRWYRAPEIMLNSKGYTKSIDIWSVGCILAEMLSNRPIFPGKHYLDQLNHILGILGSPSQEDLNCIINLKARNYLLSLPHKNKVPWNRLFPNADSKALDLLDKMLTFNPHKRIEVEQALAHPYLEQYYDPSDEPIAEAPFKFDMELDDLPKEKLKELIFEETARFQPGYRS
Method in brief: as §1

[6] = system: HEK293T cells; test: Cytotoxicity: growth-rate (change in confluence over 24 h); settings: 1 µM, normalized to 0.1% DMSO control, single replicates (n=1...)
[7] = biological target: T4, BRPF1 (Homo sapiens, UniProt P55201); test: Liability panel screening by DSF: BRPF1; assay type: binding; settings: read-out: Mean ΔTM BRPF1
T4 construct: This panel comprised ten highly ligandable kinases and bromodomains; made in house
T4 sequence (P55201 628-732 limits assumed): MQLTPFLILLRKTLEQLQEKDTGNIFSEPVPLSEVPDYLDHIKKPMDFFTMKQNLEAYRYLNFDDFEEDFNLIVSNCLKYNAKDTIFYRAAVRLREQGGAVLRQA
Method in brief: as §1

[8] = system: Gal4-VP16; assay type: cell-based; settings: 1 µM; vs. DMSO ctrl; single replicates n=1-3
[9] = biological target: T5, ABL1 (Homo sapiens, UniProt P00519); test: Liability panel screening by DSF: ABL1; assay type: binding; settings: read-out: Mean ΔTM ABL1
T5 construct: made in house
T5 sequence (P00519 whole entry, species assumed): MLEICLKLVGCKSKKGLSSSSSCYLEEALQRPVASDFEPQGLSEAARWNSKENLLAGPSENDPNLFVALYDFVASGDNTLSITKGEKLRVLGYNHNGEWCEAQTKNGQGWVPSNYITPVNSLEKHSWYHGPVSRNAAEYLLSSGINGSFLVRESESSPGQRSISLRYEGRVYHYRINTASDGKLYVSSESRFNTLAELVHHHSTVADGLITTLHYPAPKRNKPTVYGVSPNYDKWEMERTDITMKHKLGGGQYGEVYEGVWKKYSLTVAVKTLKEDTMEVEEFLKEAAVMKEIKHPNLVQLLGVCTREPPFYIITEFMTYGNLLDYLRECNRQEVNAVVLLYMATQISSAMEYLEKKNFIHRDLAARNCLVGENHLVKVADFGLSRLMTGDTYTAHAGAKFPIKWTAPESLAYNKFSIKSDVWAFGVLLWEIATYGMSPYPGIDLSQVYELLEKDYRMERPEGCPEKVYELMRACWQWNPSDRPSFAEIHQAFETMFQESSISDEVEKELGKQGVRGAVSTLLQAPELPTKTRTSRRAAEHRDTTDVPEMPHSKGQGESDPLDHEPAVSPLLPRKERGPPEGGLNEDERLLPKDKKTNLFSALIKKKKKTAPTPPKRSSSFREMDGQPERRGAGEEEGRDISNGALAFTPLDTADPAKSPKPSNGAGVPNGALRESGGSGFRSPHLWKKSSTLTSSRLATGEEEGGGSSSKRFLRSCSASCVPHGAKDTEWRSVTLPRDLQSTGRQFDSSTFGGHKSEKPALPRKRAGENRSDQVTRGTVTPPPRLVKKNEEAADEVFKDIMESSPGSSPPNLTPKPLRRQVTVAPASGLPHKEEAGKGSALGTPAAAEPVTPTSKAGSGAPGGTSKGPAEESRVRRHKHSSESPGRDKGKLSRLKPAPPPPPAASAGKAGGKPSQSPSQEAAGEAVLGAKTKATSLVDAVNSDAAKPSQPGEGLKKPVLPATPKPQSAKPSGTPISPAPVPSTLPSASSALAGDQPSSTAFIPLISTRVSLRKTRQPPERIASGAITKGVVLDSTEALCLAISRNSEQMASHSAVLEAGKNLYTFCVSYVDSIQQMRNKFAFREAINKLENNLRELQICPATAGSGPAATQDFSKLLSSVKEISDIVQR
Method in brief: as §1

[10] = system: ATF6 activity in Hela ATF6 reporter cells; test: Endoplasmic reticulum stress assay (ATF6 Renilla luciferase reporter, tunicamycin); assay type: cell-based; settings: Homo sapiens, HeLa, 1 µM, single replicates n=1 to n=5; read-out: ER stress [rel. ATF6 activity]
Method in brief: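 ER stress was induced by 100 ng/mL tunicamycin added 4 h after compound (0.1% DMSO) to HeLa ATF6 reporter cells. After 18 h more, Renilla luciferase signal was read and expressed relative to DMSO control, n=5 biological replicates.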

[11] = biological target: T6, FGFR3 (Homo sapiens, UniProt P22607); test: Liability panel screening by DSF: FGFR3; assay type: binding; settings: read-out: Mean ΔTM FGFR3
T6 construct: made in house
T6 sequence (P22607 23-806, species assumed): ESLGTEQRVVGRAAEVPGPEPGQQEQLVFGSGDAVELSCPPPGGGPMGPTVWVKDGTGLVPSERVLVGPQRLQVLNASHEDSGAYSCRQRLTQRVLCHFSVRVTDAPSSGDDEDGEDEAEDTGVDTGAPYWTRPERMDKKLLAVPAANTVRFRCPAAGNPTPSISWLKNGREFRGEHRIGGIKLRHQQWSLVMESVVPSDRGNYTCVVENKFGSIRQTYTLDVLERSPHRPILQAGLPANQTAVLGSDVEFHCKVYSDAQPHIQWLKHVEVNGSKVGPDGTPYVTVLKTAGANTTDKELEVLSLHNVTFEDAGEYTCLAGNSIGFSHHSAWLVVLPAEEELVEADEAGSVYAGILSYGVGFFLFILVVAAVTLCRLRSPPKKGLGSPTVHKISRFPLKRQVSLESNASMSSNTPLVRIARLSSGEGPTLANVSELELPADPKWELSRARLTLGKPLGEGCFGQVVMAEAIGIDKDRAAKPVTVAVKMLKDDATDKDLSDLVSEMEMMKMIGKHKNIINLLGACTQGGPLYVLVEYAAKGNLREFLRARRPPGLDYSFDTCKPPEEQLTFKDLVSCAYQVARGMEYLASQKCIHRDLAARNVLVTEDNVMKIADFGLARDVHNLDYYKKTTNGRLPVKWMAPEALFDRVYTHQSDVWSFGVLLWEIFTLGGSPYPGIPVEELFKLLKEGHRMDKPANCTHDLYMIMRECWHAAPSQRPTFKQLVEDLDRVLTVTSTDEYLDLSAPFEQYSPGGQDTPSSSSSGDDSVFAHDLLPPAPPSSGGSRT
Method in brief: as §1

[12] = biological target: T7, AURKA (Homo sapiens, UniProt O14965); test: Liability panel screening by DSF: AURKA; assay type: binding; settings: read-out: Mean ΔTM AURKA
T7 construct: made in house
T7 sequence (O14965 1-403): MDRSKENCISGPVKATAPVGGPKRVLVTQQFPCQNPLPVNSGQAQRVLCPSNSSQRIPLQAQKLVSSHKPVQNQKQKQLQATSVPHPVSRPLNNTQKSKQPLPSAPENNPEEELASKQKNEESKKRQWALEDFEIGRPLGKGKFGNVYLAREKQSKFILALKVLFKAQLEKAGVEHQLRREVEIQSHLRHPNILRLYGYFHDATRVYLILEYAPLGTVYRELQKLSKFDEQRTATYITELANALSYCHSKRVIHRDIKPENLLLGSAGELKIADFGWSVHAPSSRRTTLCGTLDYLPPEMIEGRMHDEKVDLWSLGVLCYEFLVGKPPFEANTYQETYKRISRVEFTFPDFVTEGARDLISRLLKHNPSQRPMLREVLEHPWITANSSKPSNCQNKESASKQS
Method in brief: as §1

[13] = biological target: T8, GSK3B (Homo sapiens, UniProt P49841); test: Liability panel screening by DSF: GSK3B; assay type: binding; settings: read-out: Mean ΔTM GSK3B
T8 construct: made in house
T8 sequence (P49841 whole entry, species assumed): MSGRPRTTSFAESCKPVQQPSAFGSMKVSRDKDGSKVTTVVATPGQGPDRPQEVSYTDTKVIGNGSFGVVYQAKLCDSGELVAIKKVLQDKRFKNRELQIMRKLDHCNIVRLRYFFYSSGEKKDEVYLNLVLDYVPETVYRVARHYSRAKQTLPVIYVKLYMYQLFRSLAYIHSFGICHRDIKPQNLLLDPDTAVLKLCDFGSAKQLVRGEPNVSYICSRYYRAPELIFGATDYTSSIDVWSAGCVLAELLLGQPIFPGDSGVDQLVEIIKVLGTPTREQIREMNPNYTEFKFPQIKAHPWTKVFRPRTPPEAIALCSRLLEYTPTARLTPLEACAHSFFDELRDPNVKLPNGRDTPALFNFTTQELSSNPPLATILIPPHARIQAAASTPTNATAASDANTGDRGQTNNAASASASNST

[14] = biological target: T9, CSNK1D (Homo sapiens, UniProt P48730); test: Liability panel screening by DSF: CSNK1D; assay type: binding; settings: read-out: Mean ΔTM CSNK1D
T9 construct: made in house
T9 sequence (P48730 whole entry, species assumed): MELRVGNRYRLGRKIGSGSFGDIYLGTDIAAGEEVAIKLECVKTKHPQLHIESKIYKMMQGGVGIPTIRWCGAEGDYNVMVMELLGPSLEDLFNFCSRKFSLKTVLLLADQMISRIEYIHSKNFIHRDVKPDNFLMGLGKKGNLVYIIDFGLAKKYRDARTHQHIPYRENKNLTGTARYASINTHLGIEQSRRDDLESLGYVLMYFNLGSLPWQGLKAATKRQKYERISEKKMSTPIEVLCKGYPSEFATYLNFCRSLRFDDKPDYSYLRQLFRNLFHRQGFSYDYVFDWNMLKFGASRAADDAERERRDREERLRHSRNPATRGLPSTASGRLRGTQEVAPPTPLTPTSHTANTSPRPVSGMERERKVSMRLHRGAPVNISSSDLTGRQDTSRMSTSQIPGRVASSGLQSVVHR
Method in brief: as §1

[15] = system: HEK293T cells; test: Cytotoxicity: necrosis induction (red fluorescent dye for permeable plasma membranes); assay type: cell-based; settings: 1 µM, 24 h, necrotic cell count normalized to 0.1% DMSO, single replicates;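 further: compounds applied in DMEM high glucose with 0.1% FCS and 0.1% DMSO, necrotic HEK293T cells counted by red staining of cells whose plasma membranes had become permeable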
[16] = biological target: T10, BRD4 (Homo sapiens, UniProt O60885); test: Liability panel screening by DSF: BRD4; assay type: binding; settings: read-out: Mean ΔTM BRD4
T10 construct: This panel comprised ten highly ligandable kinases and bromodomains; made in house
Method in brief: as §1

[17] = system: HEK293T cells; test: Cytotoxicity: apoptosis induction (caspase-3/7 DEVD fluorogenic DNA dye); settings: 1 µM; HEK293T, 24 h; apoptotic cell count normalized to 0.1% DMSO; single replicates
[18] = system: NF-κB activity in HEK293 NF-κB reporter cells; test: NF-kB activity assay (GFP reporter, ionomycin/PMA); assay type: cell-based; settings: for Mean NFκB response: n=3; for NF-κB activity (inflammatory response to ionomycin/PMA): HEK293 NF-κB reporter cells, compounds at recommended concentrations, imaged over 24 h, n = 3
Method in brief: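 Reporter readout: GFP-expressing cells normalized to confluence, imaged every 90 min across 24 h after ionomycin (100 ng/mL)/PMA (10 ng/mL) stimulation of HEK293 cells pre-treated 4 h with compound (0.1% DMSO); triplicate independent experiments.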

Compound | Metabolic activity [MA] [3] | Growth rate [GR] [6] | VP16 control [fold reporter gene activity] [8] | Necrosis induction [NI] [15] | Apoptosis induction [AI] [17] | Mean NFκB response ([18]; 1 µM, 1,5 h) | Mean NFκB response ([18]; 1 µM, 4,5 h) | Mean NFκB response ([18]; 1 µM, 7,5 h) | Mean NFκB response ([18]; 1 µM, 10,5 h) | Mean NFκB response ([18]; 1 µM, 13,5 h) | Mean NFκB response ([18]; 1 µM, 16,6 h) | Mean NFκB response ([18]; 1 µM, 19,5 h) | Mean NFκB response ([18]; 1 µM, 22,5 h) | Mean NFκB response ([18]; 1 µM, 3 h) | Mean NFκB response ([18]; 1 µM, 6 h) | Mean NFκB response ([18]; 1 µM, 9 h) | Mean NFκB response ([18]; 1 µM, 12 h) | Mean NFκB response ([18]; 1 µM, 15 h) | Mean NFκB response ([18]; 1 µM, 18 h) | Mean NFκB response ([18]; 1 µM, 21 h) | other results
CC(=O)Nc1ccc(OC[C@](C)(O)C(=O)Nc2ccc([N+](=O)[O-])c(C(F)(F)F)c2)cc1 [Andarine] | 0.98 and 1.03 and 0.99 and 1.08 and 1.06 (2×) and 1.01 and 1.09 | 0.83 (2×) and 2.46 and 0.88 and 1.35 and 0.73 and 0.55 and 1.46 and 1.51 and 2.55 | 1.16 fold reporter gene activity and 1.15 fold reporter gene activity and 1.08 fold reporter gene activity | 0.97 and 1.10 and 1.08 and 1.02 | 0.62 and 0.88 and 1.01 and 1.08 and 0.95 and 0.84 | 2599.83 GFP+-cells/confluence ∙ 1000 | 2912.69 GFP+-cells/confluence ∙ 1000 | 4207.99 GFP+-cells/confluence ∙ 1000 | 8408.10 GFP+-cells/confluence ∙ 1000 | 11806.03 GFP+-cells/confluence ∙ 1000 | 14271.49 GFP+-cells/confluence ∙ 1000 | 16631.36 GFP+-cells/confluence ∙ 1000 | 18398.57 GFP+-cells/confluence ∙ 1000 | 2627.11 GFP+-cells/confluence ∙ 1000 | 3252.11 GFP+-cells/confluence ∙ 1000 | 5899.76 GFP+-cells/confluence ∙ 1000 | 10166.51 GFP+-cells/confluence ∙ 1000 | 13144.54 GFP+-cells/confluence ∙ 1000 | 15566.10 GFP+-cells/confluence ∙ 1000 | 17508.52 GFP+-cells/confluence ∙ 1000 | ΔTm at 20 µM [1]: 0.0216 °C; ΔTm at 20 µM [2]: 0.35 °C; rel. activity from literature, NR3C4 (AR): % of DHT ([4]; of DHT (dihydrotestosterone), ref Supplementary Table 1): 93 ± 7%; EC50 ([4]; read-out: Potency [nM] EC50, NR3C4 (AR), (lit.), ref Supplementary Table 1): 4 ± 0.7 nM; ΔTm at 20 µM [5]: -0.26 °C; ΔTm at 20 µM [7]: 0.97 °C; ΔTm at 20 µM [9]: 0.78 °C; activity at 1 µM [10]: 93%; ΔTm at 20 µM [11]: 2.59 °C; ΔTm at 20 µM [12]: -0.0326 °C; ΔTm at 20 µM [13]: 0.71 °C; ΔTm at 20 µM [14]: 0.23 °C; ΔTm at 20 µM [16]: -0.77 °C; Mean NFκB response ([18]; 1 µM, 24 h): 19523.33 GFP+-cells/confluence ∙ 1000; NF-κB activity (inflammatory response to ionomycin/PMA) [18]: anti-inflammatory effect
CC(=O)O[C@]1(C(C)=O)CC[C@H]2[C@@H]3C=C(Cl)C4=CC(=O)[C@@H]5C[C@@H]5[C@]4(C)[C@H]3CC[C@@]21C [Cyproterone acetate] | 1.02 (2×) and 0.92 and 0.98 and 1.01 and 0.94 and 0.99 and 1.05 | 1.11 and 1.76 and 1.28 and 1.77 and 1.08 and 0.80 (2×) and 0.94 and 0.96 and 1.44 | 1.23 fold reporter gene activity and 1.09 fold reporter gene activity and 0.95 fold reporter gene activity | 0.92 and 0.81 and 0.87 and 0.98 | 0.80 and 0.89 and 0.91 and 1.07 and 1.28 and 0.67 | 3306.11 GFP+-cells/confluence ∙ 1000 | 3956.53 GFP+-cells/confluence ∙ 1000 | 9166.88 GFP+-cells/confluence ∙ 1000 | 19295.79 GFP+-cells/confluence ∙ 1000 | 27594.44 GFP+-cells/confluence ∙ 1000 | 34636.12 GFP+-cells/confluence ∙ 1000 | 38741.56 GFP+-cells/confluence ∙ 1000 | 41845.76 GFP+-cells/confluence ∙ 1000 | 3525.65 GFP+-cells/confluence ∙ 1000 | 5348.79 GFP+-cells/confluence ∙ 1000 | 14582.16 GFP+-cells/confluence ∙ 1000 | 23573.19 GFP+-cells/confluence ∙ 1000 | 31392.99 GFP+-cells/confluence ∙ 1000 | 36648.57 GFP+-cells/confluence ∙ 1000 | 40465.37 GFP+-cells/confluence ∙ 1000 | ΔTm at 20 µM ([1]; DSF, 20 µM, n=2): -1.08 °C; ΔTm at 20 µM ([2]; DSF, 20 µM, n=2): 0.15 °C; rel. activity from literature, NR3C4 (AR): % rem. act. of DHT [4]: 52 ± 6%; IC50 ([4]; read-out: Potency [nM] IC50, NR3C4 (AR)): 26 ± 23 nM; ΔTm at 20 µM ([5]; DSF, 20 µM, n=2): -0.22 °C; ΔTm at 20 µM ([7]; DSF, 20 µM, n=2): -1.28 °C; ΔTm at 20 µM ([9]; DSF, 20 µM, n=2): 0.36 °C; ΔTm at 20 µM ([11]; DSF, 20 µM, n=2): 0.57 °C; ΔTm at 20 µM ([12]; DSF, 20 µM, n=2): -1.49 °C; ΔTm at 20 µM ([13]; DSF, 20 µM, n=2): -0.72 °C; ΔTm at 20 µM ([14]; DSF, 20 µM, n=2): 0.16 °C; ΔTm at 20 µM ([16]; DSF, 20 µM, n=2): -1.71 °C; Mean NFκB response ([18]; 1 µM, 24 h): 42894.68 GFP+-cells/confluence ∙ 1000; NF-κB activity (inflammatory response to ionomycin/PMA) [18]: tended to enhance NF-κB activity

From paper PMC11790914, “Chemogenomics for steroid hormone receptors (NR3)” (Communications Chemistry, 2025)
